Assay results: patent publication EP4678638A1, “NEW E3 UBIQUITIN LIGASE LIGAND, PROTEIN DEGRADATION AGENT AND USE THEREOF” (priority 2023, dated 2024)

What was measured:
[1] = system: HCC827; assay: CCK-8 proliferation, HCC827; format: cell-based, Human; conditions: Homo sapiens, HCC827; CCK-8; 96 hours; read-out: Inhibitory activity (IC50) on tumor cell proliferation, HCC827
Procedure: (§1) The tumor cells used herein were cultured in a cell culture medium listed in table A1 at 37°C in an incubator with 5% CO2. Prior to experimentation, all cell lines used were correctly identified by STR profiling, and tested negative for mycoplasma contamination using a mycoplasma detection kit through routine screenings. Table A1. Tumor cells and cell culture medium used in the present disclosure
(§2) IC50 values of the compounds of the present disclosure (including the compounds in Table 1, and compounds of examples) were measured using the Meilun Cell Counting Kit-8 kit from Dalian Meilun Biotech Co., Ltd. Assay details are as follows: tumor cells were seeded in a 96-well plate at a density listed in Table A2. After 24h, 100 µL of the inoculated cells were treated with 0.5µL of the compounds of the present disclosure (including the compounds in Tables 1 and 2, and compounds of examples) at 10 different successively decreasing concentrations (starting at the highest concentration of 10µM; 5-fold serial dilutions). After the cells were treated with the compounds of the present disclosure for a period of time, the cell viability detection reagent was added to the culture medium for cell viability assessment according to the instructions provided with the CCK-8 kit. […] The growth inhibition of the compounds of the present disclosure on cells was plotted by Prism Graphpad software, and the IC50 values of the compounds of the present disclosure were calculated therefrom. […] Seeding protocol and treatment time for tumor cells

[2] = system: EGFR; assay: Western blot degradation of EGFR (H1975 Cell); format: cell-based, Human; conditions: Table D2
How it was run: (§3)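 After compound exposure, cells were harvested and lysates run on SDS-PAGE, transferred to nitrocellulose and probed with antibodies. Remaining target (%) was computed from band grayscale relative to an internal control protein and normalised; degradation (%) was 100% minus that.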

[3] = system: H1975; assay: CCK-8 proliferation, NCI-H1975 (H1975); format: cell-based, Human; conditions: Homo sapiens, NCI-H1975; CCK-8; 96 hours; read-out: Inhibitory activity (IC50) on tumor cell proliferation, H1975
How it was run: (§4)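 Tumor cells were cultured at 37°C with 5% CO2, seeded, and after 24h treated with compounds at 10 concentrations starting at 10µM (5-fold serial dilutions).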

[4] = system: PC-9; assay: CCK-8 proliferation, PC-9; format: cell-based, Human; conditions: Homo sapiens, PC-9; CCK-8; 96 hours; read-out: Inhibitory activity (IC50) on tumor cell proliferation, PC-9
How it was run: as §4

[5] = system: MGC-803; assay: CCK-8 proliferation, MGC-803 (heads: MGC80-3, MGC803); format: cell-based, Human; conditions: Homo sapiens, MGC-803; Table B10, compounds designed based on the IRAK4 inhibitors; MGC803 cells; read-out: Inhibitory activity (IC50, nM) on tumor cell proliferation, MGC803
Procedure: as §1, §2

[6] = system: MM.1S; assay: CCK-8 proliferation, MM.1S; format: cell-based; conditions: Homo sapiens, MM1.S; Table B10, compounds designed based on the IRAK4 inhibitors; MM.1S cells; read-out: Inhibitory activity (IC50, nM) on tumor cell proliferation, MM.1S
How it was run: as §4

[7] = system: SR; assay: CCK-8 proliferation, SR; format: cell-based, Human; conditions: Homo sapiens; Table B10, compounds designed based on the IRAK4 inhibitors; SR cells; read-out: Inhibitory activity (IC50, nM) on tumor cell proliferation, SR
How it was run: as §4

[8] = system: Jurkat; assay: CCK-8 proliferation, Jurkat; format: cell-based, Human; conditions: Homo sapiens; Table B10, compounds designed based on the IRAK4 inhibitors; Jurkat cells; read-out: Inhibitory activity (IC50, nM) on tumor cell proliferation, Jurkat
Procedure: as §1, §2

[9] = biological target: T1, IRAK4 (Homo sapiens, UniProt Q9NWZ3); assay: Western blot degradation of IRAK4 (hPBMC); format: cell-based; conditions: Table D1
T1 construct: evaluate the effects of the compounds of the present disclosure on the expression of target proteins in cells; endogenous in cells; host or cells: hPBMC
T1 sequence (Q9NWZ3 1-460): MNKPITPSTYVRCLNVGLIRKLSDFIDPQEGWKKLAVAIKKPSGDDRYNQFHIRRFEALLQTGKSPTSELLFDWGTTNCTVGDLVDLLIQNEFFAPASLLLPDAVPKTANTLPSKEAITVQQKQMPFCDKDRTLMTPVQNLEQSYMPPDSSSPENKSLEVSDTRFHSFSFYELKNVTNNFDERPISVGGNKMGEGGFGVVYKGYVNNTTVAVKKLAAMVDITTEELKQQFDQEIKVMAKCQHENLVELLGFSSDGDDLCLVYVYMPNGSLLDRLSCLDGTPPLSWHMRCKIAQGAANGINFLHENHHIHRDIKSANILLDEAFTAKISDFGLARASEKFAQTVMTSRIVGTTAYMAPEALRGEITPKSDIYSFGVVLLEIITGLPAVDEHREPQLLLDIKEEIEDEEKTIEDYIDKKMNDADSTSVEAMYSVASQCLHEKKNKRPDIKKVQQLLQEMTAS
How it was run: as §3

Structure (SMILES)	IC50 [1]	IC50 [3]	IC50 [4]	IC50 [5]	IC50 [6]	IC50 [8]	Degradation of substrate protein EGFR (substrate protein remaining %) [2]	IC50 [7]	Degradation of substrate protein IRAK4 (substrate protein remaining %) [9]
O=C1CCN(c2ccc(CN3CCN(C4CCN(c5ccc(Nc6ncc7nc(Nc8ccccc8)n(C8CCCC8)c7n6)cc5)CC4)CC3)nc2)C(=O)N1 [GT-05941, 1-(6-((4-(1-(4-((9-cyclopentyl-8-(phenylamino)-9H-purin-2-yl)amino)phenyl)piperidin-4-yl)piperazin-1-yl)methyl)pyridin-3-yl)dihydropyrimidine-2,4(1H,3H)-dione]	10 to 50 nM	100 to 500 nM	1 to 10 nM	–	–	–	A (A is defined as 0% ≤ substrate protein remaining % ≤ 80%)	–	–
Cc1cc(-c2nc(C(=O)Nc3cc4oc(N5CCOCC5)nc4nc3N3CC[C@@H](O)C3)co2)ccn1 [emavusertib, reference compound]	–	–	–	> 10000 nM	> 10000 nM	–	–	–	–
O=C1CCN(c2ccc(CN3CCC(N4CCN(c5ccc6c(c5)nc(NC(=O)c5cccc(C(F)(F)F)c5)n6[C@H]5CC[C@@H](CO)CC5)CC4)CC3)nc2)C(=O)N1 [GT-05024, N-(5-(4-(1-((5-(2,4-dioxotetrahydropyrimidin-1(2H)-yl)pyridin-2-yl)methyl)piperidin-4-yl)piperazin-1-yl)-1-((1s,4s)-4-(hydroxymethyl)cyclohexyl) -1H-benzo[d]imidazol-2-yl)-3-(trifluoromethyl)benzamide]	–	–	–	500 to 1000 nM	500 to 1000 nM	500 to 1000 nM	–	500 to 1000 nM	–
COc1cc2nn(C3CCN(Cc4ccc(C5CCC(=O)NC5=O)c(F)c4)CC3)cc2cc1NC(=O)c1cccc(C(F)(F)F)n1 (stereo not shown) [GT-04762, N-(2-(1-(4-(2,6-dioxopiperidin-3-yl)-3-fluorobenzyl)piperidin-4-yl)-6-methoxy-2H-indazol-5-yl)-6-(trifluoromethyl)picolinamide]	–	–	–	500 to 1000 nM	–	–	–	–	A (A is defined as 0% ≤ substrate protein remaining % ≤ 80%)
O=C1CCC(Nc2cccc(CN3CCN(C4CCN(c5ccc(Nc6ncc7nc(Nc8ccccc8)n(C8CCCC8)c7n6)cc5)CC4)CC3)c2)C(=O)N1 (stereo not shown) [GT-05943, 3-((3-((4-(1-(4-((9-cyclopentyl-8-(phenylamino)-9H-purin-2-yl)amino)phenyl)piperidin-4-yl)piperazin-1-yl)methyl)phenyl)amino)piperidine-2,6-dione]	10 to 50 nM	–	10 to 50 nM	–	–	–	A (A is defined as 0% ≤ substrate protein remaining % ≤ 80%)	–	–
O=C1CCC(c2ccc(CN3CCN(c4ccc(Nc5ncc6nc(Nc7ccccc7)n(C7CCCC7)c6n5)cc4)CC3)cc2)C(=O)N1 (stereo not shown) [GT-03740, 3-(4-((4-(4-((9-cyclopentyl-8-(phenylamino)-9H-purin-2-yl)amino)phenyl)piperazin-1-yl)methyl)phenyl)piperidine-2,6-dione]	10 to 50 nM	–	10 to 50 nM	–	–	–	A (A is defined as 0% ≤ substrate protein remaining % ≤ 80%)	–	–
O=C1CCN(c2ccc(CN3CCC(N4CCN(c5ccc6c(c5)nc(NC(=O)c5cccc(C(F)(F)F)c5)n6[C@H]5CC[C@@H](CO)CC5)CC4)CC3)cc2)C(=O)N1 [GT-05021, N-(5-(4-(1-(4-(2,4-dioxotetrahydropyrimidin-1(2H)-yl)benzyl)piperidin-4-yl)piperazin-1-yl)-1-((1s,4s)-4-(hydroxymethyl)cyclohexyl) -1H-benzo[d]imidazol-2-yl)-3-(trifluoromethyl)benzamide]	–	–	–	500 to 1000 nM	500 to 1000 nM	500 to 1000 nM	–	–	–

Second part, led by results:

IC50 [1]	IC50 [3]	IC50 [4]	IC50 [5]	IC50 [6]	IC50 [8]	Structure (SMILES)	Degradation of substrate protein EGFR (substrate protein remaining %) [2]	IC50 [7]	Degradation of substrate protein IRAK4 (substrate protein remaining %) [9]
1 to 10 nM	100 to 500 nM	1 to 10 nM	–	–	–	CN(Cc1ccc(C2CCC(=O)NC2=O)cc1)C1CCN(c2ccc(Nc3ncc4nc(Nc5ccccc5)n(C5CCCC5)c4n3)cc2)CC1 (stereo not shown) [GT-03863, 3-(4-(((1-(4-((9-cyclopentyl-8-(phenylamino)-9H-purin-2-yl)amino)phenyl)piperidin-4-yl)(methyl)amino)methyl)phenyl)piperidine-2,6-dione]	A (A is defined as 0% ≤ substrate protein remaining % ≤ 80%)	–	–
1 to 10 nM	100 to 500 nM	1 to 10 nM	–	–	–	CN(Cc1ccc(C2CCC(=O)NC2=O)c(F)c1)C1CCN(c2ccc(Nc3ncc4nc(Nc5ccccc5)n(C5CCCC5)c4n3)cc2)CC1 (stereo not shown) [GT-03864, 3-(4-(((1-(4-((9-cyclopentyl-8-(phenylamino)-9H-purin-2-yl)amino)phenyl)piperidin-4-yl)(methyl)amino)methyl)-2-fluorophenyl)piperidine-2,6-dione]	A (A is defined as 0% ≤ substrate protein remaining % ≤ 80%)	–	–
1 to 10 nM	100 to 500 nM	1 to 10 nM	–	–	–	O=C1CCN(c2cccc(CN3CCN(C4CCN(c5ccc(Nc6ncc7nc(Nc8ccccc8)n(C8CCCC8)c7n6)cc5)CC4)CC3)c2)C(=O)N1 [GT-05940, 1-(3-((4-(1-(4-((9-cyclopentyl-8-(phenylamino)-9H-purin-2-yl)amino)phenyl)piperidin-4-yl)piperazin-1-yl)methyl)phenyl)dihydropyrimidine-2,4(1H,3H)-dione]	A (A is defined as 0% ≤ substrate protein remaining % ≤ 80%)	–	–
10 to 50 nM	100 to 500 nM	1 to 10 nM	–	–	–	O=C1CCN(c2ccc(CN3CCN(c4ccc(Nc5ncc6nc(Nc7ccccc7)n(C7CCCC7)c6n5)cc4)CC3)nc2)C(=O)N1 [GT-05839, 1-(6-((4-(4-((9-cyclopentyl-8-(phenylamino)-9H-purin-2-yl)amino)phenyl)piperazin-1-yl)methyl)pyridin-3-yl)dihydropyrimidine-2,4(1H,3H)-dione]	A (A is defined as 0% ≤ substrate protein remaining % ≤ 80%)	–	–
10 to 50 nM	100 to 500 nM	1 to 10 nM	–	–	–	O=C1CCN(c2ccc(CN3CCN(c4ccc(Nc5ncc6nc(Nc7ccccc7)n(C7CCCC7)c6n5)cc4)CC3)cn2)C(=O)N1 [GT-05840, 1-(5-((4-(4-((9-cyclopentyl-8-(phenylamino)-9H-purin-2-yl)amino)phenyl)piperazin-1-yl)methyl)pyridin-2-yl)dihydropyrimidine-2,4(1H,3H)-dione]	A (A is defined as 0% ≤ substrate protein remaining % ≤ 80%)	–	–
1 to 10 nM	100 to 500 nM	1 to 10 nM	–	–	–	O=C1CCN(c2cccc(CN3CCN(c4ccc(Nc5ncc6nc(Nc7ccccc7)n(C7CCCC7)c6n5)cc4)CC3)c2)C(=O)N1 [GT-05838, 1-(3-((4-(4-((9-cyclopentyl-8-(phenylamino)-9H-purin-2-yl)amino)phenyl)piperazin-1-yl)methyl)phenyl)dihydropyrimidine-2,4(1H,3H)-dione]	A (A is defined as 0% ≤ substrate protein remaining % ≤ 80%)	–	–
10 to 50 nM	100 to 500 nM	1 to 10 nM	–	–	–	CN(Cc1cccc(N2CCC(=O)NC2=O)c1)C1CCN(c2ccc(Nc3ncc4nc(Nc5ccccc5)n(C5CCCC5)c4n3)cc2)CC1 [GT-05870, 1-(3-(((1-(4-((9-cyclopentyl-8-(phenylamino)-9H-purin-2-yl)amino)phenyl)piperidin-4-yl)(methyl)amino)methyl)phenyl)dihydropyrimidine-2,4(1H,3H)-dione]	A (A is defined as 0% ≤ substrate protein remaining % ≤ 80%)	–	–
